From patent publication US20260159474A1, “Aminoindane Compounds and Compositions and Methods of Their Therapeutic Use” (Solvonis Therapeutics Ireland Holdings Limited, priority 2021, published 2026)
Several values for one entry are separate records, joined by “and”; a condition that tells them apart may be missing. Equal entries are not always repeated.

Key:
[1] = target: T1, hSERT (Homo sapiens, UniProt P31645); experiment: SERT uptake SPA in hSERT-CHO cells; type: cell-based; conditions: for IC50: [3H]-serotonin uptake, hSERT-CHO cells, read-out: SERT Uptake SPA (pIC50) (converted)
T1 construct: expressed in transfected cells; host or cells: CHO (hSERT-CHO)
Procedure: (§4) Briefly, on experiment days, hDAT-CHO cells were detached using Versene and added at a density of approximately 300,000 cells/mL to the SPA Mixture, which contains the following components in Assay Buffer (20 mM HEPES, 145 mM NaCl, 5 mM KCl, 2 mM CaCl2), 1 mM MgCl2, 5.5 mM glucose, 0.01% Pluronic F127, pH 7.3): 0.75 mg/mL SPA Imaging beads (RPNQ0001, PerkinElmer), 10 μM pargyline and 80 nM of [3H]-dopamine (NET673, PerkinEImer). The SPA Mixture was added 20 μL/well to 384 well plates containing 0.1 μL/well of test compound in neat DMSO (11 points of 1:5 serial dilution, 0.5% DMSO final) or 0.1 μL of DMSO (total uptake) or 0.1 μL of the standard inhibitor indatraline (at 1 μM final concentration, as nonspecific uptake). Plates were sealed with a Top-seal A and read using a Microbeta counter (PerkinElmer) after 45 minutes of incubation at room temperature. […] The SPA Mixture was added 20 μL/well to 384 well plates containing 0.1 μL/well of test compound in neat DMSO (11 points of 1:5 serial dilution, 0.5% DMSO final), 0.1 μL of DMSO (total uptake), or 0.1 μL of the standard inhibitor indatraline (1 μM, nonspecific uptake). Plates were sealed with a Top-seal A and read using a Microbeta counter (PerkinElmer) after 120 minutes of incubation at room temperature.
For both tests, the raw experimental data (cpm) were elaborated for the determination of pIC50/IC50 values as % inhibition of specific uptake. Concentration-response curves of MDMA, MDDMA, citalopram and GBR-12909 were used as internal standards in all experiments, and the signal window was monitored in each plate performing Z′ calculations, as described in Zhang et al., J Biomol Screen.

[2] = system: 5-HT release in rat synaptosomes; experiment: Serotonin release assay in rat cortex synaptosomes; type: biochemical; conditions: for 5-HT Release (pEC50): rat cortex synaptosomes, % of maximal release with 50 μM MDMA, n=2; for SERT/DAT Release Ratio: ratio of 5-HT and DA release potency, rat synaptosomes
Procedure: (§1) Methods-Evaluation of Monoamine Release: The potency of therapeutic compounds for stimulating DA release was measured by an endpoint release filtration assay in a 96-well format using rat synaptosomes, essentially as described by Sandtner et al. (Mol Pharmacol., 2016; 89(1):165-75.) and Baumann et al. (Neuropsychopharmacol, 2013; 38:552-562.) with some variations. One male rat was euthanized, and striatum/cortex regions were dissected over ice. The striatum portions were weighed and put in a glass tube containing ice-cold 0.32 M sucrose (dilution 1:24 w/v) for homogenization, while the frontal cortex tissue was diluted in ice-cold 0.32 M sucrose, 1:20 w/v. Tissues were homogenized and centrifuged for 10 mins at 1000×g. The two supernatants from striatum and cortex (crude synaptosomes) were retained on ice until use.
(§2) Test compounds were then serially diluted 1:4 in neat DMSO as concentration-response curves (CRC) of 11 points. To each well of a 2-mL 96 deep-well plate (Whatman UNIPLATE 96 well) were added: 2 μL of a concentration-response curve (CRC) of test compounds or 2 μL of DMSO (no-release condition) or 2 μL of MDMA 10 mM solution (final 50 μM, for maximal release), followed by 200 μL/well of complete Krebs-phosphate buffer (126 mM NaCl, 2.4 mM KCl, 0.83 mM CaCl2), 0.8 mM MgCl2, 0.5 mM KH2PO4, 0.5 mM Na2SO4, 11.1 mM glucose, 0.05 mM pargyline, 1 mg/mL ascorbic acid, freshly added, pH 7.4), containing 1 μM reserpine to block vesicular uptake of substrate. Desipramine (100 nM) and citalopram (100 nM) were also added to the release assay buffer in order to inhibit NET and SERT uptake, respectively. The final compound dilution, then, was 1:200 in 0.5% DMSO.
(§3) The raw data (cpm) from residual radioactivity onto the filter were elaborated for the determination of pEC50/EC50 values. Specifically, the compound effect was expressed as the percent of maximal release obtained with 50 μM MDMA (100% release) in comparison to vehicle (0.5% DMSO, 0% release). Both MDMA and D-amphetamine in CRC were used as internal controls in each release experiment. In each plate, for both 0% and 100% of release, the signal window was monitored and Z′ calculations were determined using the raw data of four replicates. 5-HT release was calculated in an identical fashion, except that 5 nM 3H-serotonin was added to crude cortex synaptosomes preparation diluted 1:13 (v/v) in complete Krebs-phosphate buffer containing 1 μM Reserpine, 100 nM GBR12909 and 100 nM nomifensine to block vesicular, DAT, and NET uptake, respectively. Synaptosomes were then loaded with 3H-5HT for 60 minutes at RT. After dispensing loaded synaptosomes onto a compound plate (200 μL/well), the release reaction proceeded for an additional 15 minutes. Stop by filtration, counting, and data elaboration were performed as described for DA release. Compounds were tested in duplicate (n=2).

[3] = target: T2, human DAT (Homo sapiens, UniProt Q01959); experiment: DAT uptake SPA in hDAT-CHO cells; type: cell-based; conditions: [3H]-dopamine uptake, hDAT-CHO cells; read-out: DAT Uptake SPA (pIC50) (converted)
T2 construct: expressed in transfected cells; host or cells: CHO (hDAT-CHO)
Procedure: Methods-Evaluation of Monoamine Uptake/Transporter Inhibition: Inhibitory activity on DAT function was measured using an uptake assay in a recombinant CHO cell line stably expressing human DAT (hDAT-CHO). Potency was measured in terms of pIC50 by testing for inhibition of [3H]-dopamine uptake in hDAT-CHO cells in a multiwell format SPA.
as §4
For both tests, the raw experimental data (cpm) were elaborated for the determination of pIC50/IC50 values as % inhibition of specific uptake.

[4] = system: DA release in rat synaptosomes; experiment: Dopamine release assay in rat striatal synaptosomes; type: biochemical; conditions: % of maximal release with 50 μM MDMA, n=2
Procedure: as §1, §2
3H-Dopamine was added to the tube containing the crude striatal synaptosomes preparation, diluted 1:20 (v/v) in complete Krebs-phosphate buffer, and was incubated at RT and gently mixed for 60 minutes. Then, 200 μL/well of 3H-DA loaded synaptosomes were dispensed to the compound plate (final 400 μL/well), and the release reaction proceeded for an additional 15 minutes at RT. The release was terminated by vacuum filtration and washing three times with 1 mL of saline solution (NaCl 0.9%) at RT. The retained radioactivity was counted in a scintillation counter after the addition of 50 μL/well Microscint-20.
as §3

[5] = system: DAT/SERT; conditions: Simmler et al., Br J Pharmacol. 2013; cited from earlier work

T1 sequence (P31645 whole entry): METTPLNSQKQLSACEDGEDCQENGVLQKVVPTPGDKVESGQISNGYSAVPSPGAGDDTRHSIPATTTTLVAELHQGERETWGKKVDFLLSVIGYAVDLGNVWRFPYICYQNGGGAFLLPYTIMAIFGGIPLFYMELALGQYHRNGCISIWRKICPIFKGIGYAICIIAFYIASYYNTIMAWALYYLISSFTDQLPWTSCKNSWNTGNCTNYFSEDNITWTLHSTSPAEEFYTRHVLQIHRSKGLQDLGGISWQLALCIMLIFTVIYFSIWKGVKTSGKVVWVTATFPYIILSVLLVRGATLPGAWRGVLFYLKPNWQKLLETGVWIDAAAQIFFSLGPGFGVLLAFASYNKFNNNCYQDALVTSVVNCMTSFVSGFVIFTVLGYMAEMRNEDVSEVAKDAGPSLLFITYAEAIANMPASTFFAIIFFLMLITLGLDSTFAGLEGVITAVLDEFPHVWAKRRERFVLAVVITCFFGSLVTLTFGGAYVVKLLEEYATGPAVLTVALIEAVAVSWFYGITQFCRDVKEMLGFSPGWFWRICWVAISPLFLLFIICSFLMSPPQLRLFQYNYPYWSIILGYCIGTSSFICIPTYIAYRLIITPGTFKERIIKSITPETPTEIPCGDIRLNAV
T2 sequence (Q01959 whole entry): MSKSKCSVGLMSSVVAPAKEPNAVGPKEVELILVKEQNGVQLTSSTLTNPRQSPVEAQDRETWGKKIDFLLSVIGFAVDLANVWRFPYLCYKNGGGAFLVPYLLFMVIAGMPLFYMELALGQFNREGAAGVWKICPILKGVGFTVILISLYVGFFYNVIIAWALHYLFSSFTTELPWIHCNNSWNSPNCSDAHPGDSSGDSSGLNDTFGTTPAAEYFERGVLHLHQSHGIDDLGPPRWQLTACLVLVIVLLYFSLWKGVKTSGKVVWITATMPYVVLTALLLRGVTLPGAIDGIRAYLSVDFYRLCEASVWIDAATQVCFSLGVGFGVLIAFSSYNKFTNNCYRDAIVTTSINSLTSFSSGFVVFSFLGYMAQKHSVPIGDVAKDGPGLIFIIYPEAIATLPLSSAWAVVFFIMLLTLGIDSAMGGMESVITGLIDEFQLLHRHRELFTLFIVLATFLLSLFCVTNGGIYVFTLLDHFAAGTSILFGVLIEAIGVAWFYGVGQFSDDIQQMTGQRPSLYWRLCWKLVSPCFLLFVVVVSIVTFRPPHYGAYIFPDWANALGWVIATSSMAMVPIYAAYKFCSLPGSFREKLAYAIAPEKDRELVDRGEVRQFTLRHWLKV

Row | SMILES | IC50 [1] [µM] | SERT/DAT Uptake Ratio ([1]; calculated as 1/SERT IC50:1/DAT IC50) | 5-HT Release (pEC50) [2] | SERT/DAT Release Ratio [2] | IC50 [3] [µM] | DA Release (pEC50) [4] | DAT/SERT ratio [5]
1 | COC(=O)Cc1ccc2c(c1)CC(N)C2 (centres unmarked) [CMP-406] | 63.1 | >1.6 | 4.3 | >2.0 | > 100 | <4.0 | 
2 | CN[C@@H](C)Cc1ccccc1 [methamphetamine] |  |  |  |  |  |  | > 10 and 10
3 | COC(=O)CCc1ccc2c(c1)CC(N)C2 (centres unmarked) [CMP-407] | 25.1 |  | <4.0 | <0.25 | 63.1 | 4.6 | 
4 | COC(=O)Cc1cc2c(cc1OC)CC(N)C2 (centres unmarked) [CMP-408] | 39.8 |  | 4.6 | 3.9 | 100 | <4.0 | 
